Reference: patent US20240417342A1, “METHOD FOR PRODUCING GRANULAR COMPOSITION CONTAINING GLUTATHIONE” (KANEKA CORPORATION, priority 2022, published 2024)
Like-named read-outs stand apart in the source and are kept apart here.

Assay: Solubility in water at 20° C.
Type: physicochemical
Experimental: Specifically, the percentage can be expressed as the number of grams of the nitrogen-containing fertilizer component that is soluble in 100 ml of water at 20° C.

| solubility in water at 20° C. [g/100 mL] | solubility in water at 20° C. (% = g per 100 ml water) [%] | Compound |
| --- | --- | --- |
| 4.2 | 4.2 | N[C@@H](Cc1c[nH]cn1)C(=O)O [L-histidine] |
| 4.0 | 4.0 | CC[C@H](C)[C@H](N)C(=O)O [L-isoleucine] |
| 0.5 | 0.5 | NC(=O)NC1NC(=O)NC1=O (stereo not drawn) [allantoin] |
